Measured values taken from PubChem BioAssay AID248 (DTP/NCI, 2004).
“And” between values parts separate entries of the source, which are not always exact repeats. Equal entries are not always repeated. Inconclusive results and toxic doses are left out. Rule as the data show it: active = T/C of 150% or more; inactive = T/C below 125%.

Test system: L1210 leukemia ip in BDF1 mice, survival T/C
Experiment: NCI In Vivo Anticancer Drug Screen. Data for tumor model L1210 Leukemia (intraperitoneal) in B6D2F1 (BDF1) mice
Settings: endpoint: mean survival time, higher = longer survival
How it was run: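 Value reflects the ratio of survival in compound-treated mice to survival in vehicle-treated controls, with both groups carrying the same transplanted tumor.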

[1] = dose: 100.0 mg/kg/injection, schedule: Q01DX001 (ip), vehicle: Klucel (hydroxypropylcellulose) (HPC)
[2] = dose: 200.0 mg/kg/injection, schedule: Q01DX001 (ip), vehicle: Klucel (hydroxypropylcellulose) (HPC)
[3] = dose: 400.0 mg/kg/injection, schedule: Q01DX001 (ip), vehicle: Klucel (hydroxypropylcellulose) (HPC)
[4] = dose: 100.0 mg/kg/injection, schedule: Q01DX009 (ip), vehicle: saline with Tween-80
[5] = dose: 200.0 mg/kg/injection, schedule: Q01DX009 (ip), vehicle: saline with Tween-80

Measured: T/C

O=C(Nc1ccc(F)c([N+](=O)[O-])c1)Oc1cc(=O)oc2ccccc12
inactive: dose: 25.0 mg/kg/injection, schedule: Q04DX003 (ip), vehicle: Klucel (hydroxypropylcellulose) (HPC) 104 % of control | dose: 50.0 mg/kg/injection, schedule: Q04DX003 (ip), vehicle: Klucel (hydroxypropylcellulose) (HPC) 101 % of control | dose: 75.0 mg/kg/injection, schedule: Q01DX001 (ip), vehicle: Klucel (hydroxypropylcellulose) (HPC) 102 % of control | dose: 75.0 mg/kg/injection, schedule: Q01DX009 (ip), vehicle: Klucel (hydroxypropylcellulose) (HPC) 93 % of control and 103 % of control | dose: 100.0 mg/kg/injection, schedule: Q01DX009 (ip), vehicle: Klucel (hydroxypropylcellulose) (HPC) 103 % of control and 92 % of control | dose: 100.0 mg/kg/injection, schedule: Q04DX002 (ip), vehicle: Klucel (hydroxypropylcellulose) (HPC) 95 % of control and 107 % of control | dose: 100.0 mg/kg/injection, schedule: Q04DX003 (ip), vehicle: Klucel (hydroxypropylcellulose) (HPC) 98 % of control | dose: 150.0 mg/kg/injection, schedule: Q01DX001 (ip), vehicle: Klucel (hydroxypropylcellulose) (HPC) 102 % of control | dose: 150.0 mg/kg/injection, schedule: Q01DX009 (ip), vehicle: Klucel (hydroxypropylcellulose) (HPC) 87 % of control and 92 % of control | dose: 200.0 mg/kg/injection, schedule: Q01DX009 (ip), vehicle: Klucel (hydroxypropylcellulose) (HPC) 97 % of control | dose: 200.0 mg/kg/injection, schedule: Q04DX002 (ip), vehicle: Klucel (hydroxypropylcellulose) (HPC) 100 % of control and 102 % of control | dose: 300.0 mg/kg/injection, schedule: Q01DX001 (ip), vehicle: Klucel (hydroxypropylcellulose) (HPC) 107 % of control | dose: 400.0 mg/kg/injection, schedule: Q04DX002 (ip), vehicle: Klucel (hydroxypropylcellulose) (HPC) 95 % of control and 96 % of control

O=C(Nc1cc(Cl)ccc1Cl)C(Cl)(Cl)Cl
inactive: [1] 97 % of control | [2] 103 % of control | [3] 93 % of control

O=C(Sc1ccc([N+](=O)[O-])cc1)C(=O)Sc1ccc([N+](=O)[O-])cc1
inactive: [4] 87 % of control | [5] 97 % of control

CCCCc1ccccn1
inactive: dose: 100.0 mg/kg/injection, schedule: Q01DX001 (ip), vehicle: saline 96 % of control

Brc1ccc([Si](c2ccccc2)(c2ccccc2)c2ccc(Br)cc2)cc1
inactive: [4] 101 % of control | [5] 93 % of control | dose: 400.0 mg/kg/injection, schedule: Q01DX009 (ip), vehicle: saline with Tween-80 89 % of control

O=C(O)CC1Sc2ccccc2NC1=O (stereo not given)
inactive: [1] 105 % of control | [2] 94 % of control | [3] 105 % of control
